Results: patent US8440837B2, “2-substituted-ethynylthiazole derivatives and uses of same” (H. Lundbeck A/S, priority 2009, dated 2013)

How the values were obtained:
mGluR5 = mGluR5 (Homo sapiens, UniProt P41594); assay: [3H] MPEP radioligand filtration binding assay on membrane homogenates; settings: 5 nM [3H] MPEP, Cheng-Prusoff from IC50
Protocol: Binding assays were performed as described in [J. A. O'Brien et al. Mol. Pharmacol., 2003, 64, 731-740] with slight modifications. Briefly, after thawing, the membrane homogenates were resuspended in 50 mM Tris-HCl, 0.9% NaCl binding buffer at pH 7.4 to a final assay concentration of 20 μg protein/well for [^3H] […] ([^3H] MPEP) (American Radiolabeled Chemicals, Inc., St. Louis, Mo.) filtration binding. Incubations included 5 nM [^3H] MPEP, membranes and either buffer or varying concentrations of compound. Samples were incubated for 60 min at room temperature with shaking. Non-specific binding was defined with 10 μM MPEP. After incubation, samples were filtered over a GF/C filter (presoaked in 0.25% polyethyleneimine (PEI)) and then washed 4 times using a Tomtec® Harvester 96® Mach III cell harvester (Tomtec, Hamden, Conn.) with 0.5 mL ice-cold 50 mM Tris-HCl (pH 7.4).
IC50 values were derived from the inhibition curve and Ki values were calculated according to the Cheng and Prusoff equation of Ki=IC50/(1+[L]/Kd) described in [Y. Cheng and W. H. Prusoff Biochem. Pharmacol. 1973, 22, 3099-3108] where [L] is the concentration of radioligand and Kd is its dissociation constant at the receptor, derived from the saturation isotherm.

[1] = test system: working memory processes (cognition); assay: Novel object recognition (NOR) test; format: in vivo, rats
Protocol: Cognition can be assessed by the novel object recognition (NOR). NOR can be used to access cognitive performance with respect to processes of working memory, such as recognition, interpretation and appropriate response. The NOR test was performed using the compound of Example 1 and reference compound in vehicle of 20% β-cyclodextrin (βCD) in dH2O. Example 1 (at 3.0 mg/kg, ip in rats) has activity as measured in the NOR test. Along with Example 1, Examples 2, 12 and 35 (at 1.0 mg/kg, po in rats) have activity as measured in the NOR test.

[2] = molecular target: human metabotropic glutamate receptor 5 (hmGluR5) (UniProt P31424); assay: Calcium mobilization (FLIPR) assay, positive allosteric modulation of the EC20 glutamate response; format: cell-based; settings: HEK 293 cells; for maximum modulation (Emax): EC20 glutamate response; for EC50: increase in EC20 glutamate response
Protocol: (§1) The cDNA for human metabotropic glutamate receptor 5 (hmGluR5) was a generous gift from S. Nakanishi (Kyoto University, Kyoto, Japan). The […] was stably expressed in a HEK 293 cell line and grown in Dulbecco's Modified Eagle Medium (DMEM) (Invitrogen, Carlsbad, Calif.) with supplements (10% bovine calf serum, 4 mM glutamine, 100 units/mL penicillin, 100 μg/mL streptomycin and […]) at 37° C., 5% CO2. Twenty-four hours prior to assay, cells were seeded into 384-well black wall microtiter plates coated with poly-D-lysine. Just prior to assay, media was aspirated and cells dye-loaded (25 μL/well) with 3 μM Fluo-4/0.01% pluronic acid in assay buffer (Hank's Balanced Saline Solution (HBSS)): 150 mM NaCl, 5 mM KCl, 1 mM CaCl2, 1 mM MgCl2, plus 20 mM N-2-Hydroxyethylpiperazine-N′-2-ethanesulfonic acid (HEPES), pH 7.4, 0.1% bovine serum albumin (BSA) and 2.5 mM probenicid) for 1 hour in 5% CO2 at 37° C. After excess dye was discarded, cells were washed in assay buffer and layered with a final volume equal to 30 μL/well. Basal fluorescence is monitored in a fluorometric imaging plate reader (FLIPR) (Molecular Devices, Sunnyvale, Calif.) with an excitation wavelength of 488 nm and an emission range of 500 to 560 nm. Laser excitation energy was adjusted so that basal fluorescence readings were approximately 10,000 relative fluorescent units. Cells were stimulated with an EC20 or an EC80 concentration of glutamate in the presence of a compound to be tested, both diluted in assay buffer, and relative fluorescent units were measured at defined intervals (exposure=0.6 sec) over a 3 min period at room temperature. Basal readings derived from negative controls were subtracted from all samples. Maximum change in fluorescence was calculated for each well. Concentration-response curves derived from the maximum change in fluorescence were analyzed by nonlinear regression (Hill equation).
A silent allosteric modulator (SAM) can be identified by using a combination of both the calcium mobilization assay data and the radioligand binding data. As used herein, the term “silent allosteric modulator” refers to a ligand that binds to an allosteric site of the receptor but has no measurable intrinsic efficacy.

[3] = molecular target: human metabotropic glutamate receptor 5 (hmGluR5); assay: Calcium mobilization (FLIPR) assay, negative allosteric modulation of the EC80 glutamate response; format: cell-based; settings: HEK 293 cells, inhibition of EC80 glutamate response
Protocol: as §1
A negative allosteric modulator (NAM) can be identified from these concentration-response curves if a compound produces a concentration dependent inhibition of the EC80 glutamate response.

mGluR5, sequence (P41594 21-1212): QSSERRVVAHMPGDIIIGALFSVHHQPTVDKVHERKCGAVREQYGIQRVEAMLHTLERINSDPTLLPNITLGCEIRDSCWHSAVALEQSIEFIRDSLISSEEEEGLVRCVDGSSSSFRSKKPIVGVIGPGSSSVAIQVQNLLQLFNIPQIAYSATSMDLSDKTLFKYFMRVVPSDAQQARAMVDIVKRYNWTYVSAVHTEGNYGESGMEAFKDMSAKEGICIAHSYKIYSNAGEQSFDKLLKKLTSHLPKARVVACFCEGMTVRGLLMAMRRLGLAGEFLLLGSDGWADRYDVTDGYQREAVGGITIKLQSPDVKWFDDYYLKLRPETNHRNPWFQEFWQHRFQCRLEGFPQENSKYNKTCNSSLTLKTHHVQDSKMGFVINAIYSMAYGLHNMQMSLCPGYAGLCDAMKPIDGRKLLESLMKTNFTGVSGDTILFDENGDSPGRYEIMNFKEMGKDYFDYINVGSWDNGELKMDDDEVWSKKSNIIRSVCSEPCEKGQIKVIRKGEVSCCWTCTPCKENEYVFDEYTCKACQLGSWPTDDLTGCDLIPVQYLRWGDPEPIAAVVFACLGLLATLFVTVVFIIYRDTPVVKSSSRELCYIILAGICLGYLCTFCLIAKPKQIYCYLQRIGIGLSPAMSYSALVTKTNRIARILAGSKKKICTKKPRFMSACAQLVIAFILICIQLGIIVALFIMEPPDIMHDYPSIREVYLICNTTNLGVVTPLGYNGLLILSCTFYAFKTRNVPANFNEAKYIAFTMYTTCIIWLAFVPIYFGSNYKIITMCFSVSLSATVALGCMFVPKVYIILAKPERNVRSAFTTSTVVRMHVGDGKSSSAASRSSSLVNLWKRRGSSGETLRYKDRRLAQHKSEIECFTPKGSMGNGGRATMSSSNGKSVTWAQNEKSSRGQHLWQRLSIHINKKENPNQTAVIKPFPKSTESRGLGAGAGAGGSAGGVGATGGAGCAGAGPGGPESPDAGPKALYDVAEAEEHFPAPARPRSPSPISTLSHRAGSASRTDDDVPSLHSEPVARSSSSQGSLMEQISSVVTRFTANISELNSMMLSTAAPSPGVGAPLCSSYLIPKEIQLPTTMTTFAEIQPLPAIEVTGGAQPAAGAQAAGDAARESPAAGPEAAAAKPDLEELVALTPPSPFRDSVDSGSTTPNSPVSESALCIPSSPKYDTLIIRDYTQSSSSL

Structure (SMILES)	Ki (mGluR5) [nM]	IC50 [3] [nM]	also measured
O=C(c1cnc(C#Cc2ccccc2)s1)N1CCCCC1 [Example 1, (2-Phenylethynyl-thiazol-5-yl)-piperidin-1-yl-methanone]	139	–	activity in the NOR test ([1]; 1.0 mg/kg, po in rats, FIG. 2): have activity; activity in the NOR test ([1]; 3.0 mg/kg, ip in rats, FIG. 1): has activity; maximum modulation (Emax) [2]: 210%; EC50 [2]: 3.6 nM
O=C(c1cnc(C#Cc2ccccc2)s1)N1CCC(F)CC1 [Example 2, (4-Fluoro-piperidin-1-yl)-(2-phenylethynyl-thiazol-5-yl)-methanone]	192	–	activity in the NOR test ([1]; 1.0 mg/kg, po in rats, FIG. 2): have activity; maximum modulation (Emax) [2]: 130%; EC50 [2]: 7.9 nM
O=C(c1cnc(C#Cc2ccccc2)s1)N1CCOCC1 [Example 7, Morpholin-4-yl-(2-phenylethynyl-thiazol-5-yl)-methanone]	860	–	–
CC1CCN(C(=O)c2cnc(C#Cc3ccccc3)s2)CC1 [Example 11, (4-Methyl-piperidin-1-yl)-(2-phenylethynyl-thiazol-5-yl)-methanone]	135	–	maximum modulation (Emax) [2]: 150%; EC50 [2]: 3.5 nM
O=C(c1cnc(C#Cc2ccccc2)s1)N1CCC(O)CC1 [Example 12, (4-Hydroxy-piperidin-1-yl)-(2-phenylethynyl-thiazol-5-yl)-methanone]	7170	–	activity in the NOR test ([1]; 1.0 mg/kg, po in rats, FIG. 2): have activity; maximum modulation (Emax) [2]: 170%; EC50 [2]: 280 nM
O=C(c1cnc(C#Cc2cccc(F)c2)s1)N1CCOCC1 [Example 22, [2-(3-Fluoro-phenylethynyl)-thiazol-5-yl]-morpholin-4-yl-methanone]	300	–	–
O=C(c1cnc(C#Cc2cccc(Cl)c2)s1)N1CCCCC1 [Example 35, [2-(3-Chloro-phenylethynyl)-thiazol-5-yl]-piperidin-1-yl-methanone]	–	–	activity in the NOR test ([1]; 1.0 mg/kg, po in rats, FIG. 2): have activity
O=C(c1cnc(C#Cc2ccccc2)s1)N1C2CCC1CC2 [Example 145, (7-Aza-bicyclo[2.2.1]hept-7-yl)-(2-phenylethynyl-thiazol-5-yl)-methanone]	–	5	–

More lines, main results first:

Ki (mGluR5) [nM]	IC50 [3] [nM]	Structure (SMILES)	also measured
–	31	O=C(c1cnc(C#Cc2ccccc2)s1)N1CCC(F)(F)C1 [Example 115, (3,3-Difluoro-pyrrolidin-1-yl)-(2-phenylethynyl-thiazol-5-yl)-methanone]	–
–	33	COCC1CCCN(C(=O)c2cnc(C#Cc3ccccc3)s2)C1 (stereo not shown) [Example 123, (3-Methoxymethyl-piperidin-1-yl)-(2-phenylethynyl-thiazol-5-yl)-methanone]	–
–	27	COC[C@@H]1CCCN1C(=O)c1cnc(C#Cc2ccccc2)s1 [Example 168, ((S)-2-Methoxymethyl-pyrrolidin-1-yl)-(2-phenylethynyl-thiazol-5-yl)-methanone]	–
–	25	CC(C)(C)OC(=O)N1CC2CN(C(=O)c3cnc(C#Cc4ccccc4)s3)CC2C1 (stereo not shown) [Example 171, 5-(2-Phenylethynyl-thiazole-5-carbonyl)-hexahydro-pyrrolo[3,4-c]pyrrole-2-carboxylic acid tert-butyl ester]	–
–	440	O=C(c1cnc(C#Cc2ccccc2)s1)N1CC2CNCC2C1 (stereo not shown) [Example 173, (Hexahydro-pyrrolo[3,4-c]pyrrol-2-yl)-(2-phenylethynyl-thiazol-5-yl)-methasone]	–
–	29	O=C(c1cnc(C#Cc2ccccn2)s1)N1CCCCC1 [Example 191, Piperidin-1-yl-(2-pyridin-2-ylethynyl-thiazol-5-yl)-methanone]	–
–	29	Cc1cccc(C#Cc2ncc(C(=O)N3CCCCC3)s2)n1 [Example 193, [2-(6-Methyl-pyridin-2-ylethynyl)-thiazol-5-yl]-piperidin-1-yl-methasone]	–
–	20	O=C(c1cnc(C#Cc2ccccn2)s1)N1CCCC1 [Example 198, (2-Pyridin-2-ylethynyl-thiazol-5-yl)-pyrrolidin-1-yl-methanone]	–
–	700	CC(c1cnc(C#Cc2ccccc2)s1)N1CCCCC1 (stereo not shown) [Example 231, 1-[1-(2-Phenylethynyl-thiazol-5-yl)-ethyl]-piperidine]	–
–	360	O=C(c1ccccc1)c1cnc(C#Cc2ccccc2)s1 [Example 237, Phenyl-(2-phenylethynyl-thiazol-5-yl)-methanone]	–
–	140	CC(O)(c1ccccc1)c1cnc(C#Cc2ccccc2)s1 (stereo not shown) [Example 240, 1-Phenyl-1-(2-phenylethynyl-thiazol-5-yl)-ethanol]	–
